Where two headings read alike, the source gives them in different places.
Tests used:
[1] = target: T1, cytochrome bo3 (bo3-only E. coli membranes) (Escherichia coli, UniProt P0ABI8); test: O2 reductase activity of isolated bo3-containing membranes; assay type: biochemical
T1 construct: the oxidases were in vivo conditions, i.e., integrated into native bacterial membranes; endogenous in cells; host or cells: E. coli TBE025 (MG1655 ΔcydB nuoB appB::kan); whole cells (A3) or membranes isolated from them (A7)
T1 sequence (P0ABI8 whole entry): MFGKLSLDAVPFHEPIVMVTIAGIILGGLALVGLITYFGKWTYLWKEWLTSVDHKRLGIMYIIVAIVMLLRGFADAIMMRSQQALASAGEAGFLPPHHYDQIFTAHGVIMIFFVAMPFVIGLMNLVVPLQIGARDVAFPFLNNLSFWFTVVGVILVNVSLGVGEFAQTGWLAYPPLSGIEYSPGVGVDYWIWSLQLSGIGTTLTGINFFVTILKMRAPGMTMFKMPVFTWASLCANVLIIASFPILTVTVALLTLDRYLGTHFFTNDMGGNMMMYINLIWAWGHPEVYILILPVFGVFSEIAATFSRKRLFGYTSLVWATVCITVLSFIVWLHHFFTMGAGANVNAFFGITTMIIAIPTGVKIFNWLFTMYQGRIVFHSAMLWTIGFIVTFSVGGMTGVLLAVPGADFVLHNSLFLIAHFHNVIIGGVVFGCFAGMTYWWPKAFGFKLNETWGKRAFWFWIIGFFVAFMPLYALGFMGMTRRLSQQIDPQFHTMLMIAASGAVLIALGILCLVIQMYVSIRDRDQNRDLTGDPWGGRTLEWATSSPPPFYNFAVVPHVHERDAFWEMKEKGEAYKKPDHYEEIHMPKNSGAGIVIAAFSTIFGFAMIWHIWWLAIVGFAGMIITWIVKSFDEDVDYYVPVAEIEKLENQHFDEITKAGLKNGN
T1 sequence (P0ABJ1 25-315 partner): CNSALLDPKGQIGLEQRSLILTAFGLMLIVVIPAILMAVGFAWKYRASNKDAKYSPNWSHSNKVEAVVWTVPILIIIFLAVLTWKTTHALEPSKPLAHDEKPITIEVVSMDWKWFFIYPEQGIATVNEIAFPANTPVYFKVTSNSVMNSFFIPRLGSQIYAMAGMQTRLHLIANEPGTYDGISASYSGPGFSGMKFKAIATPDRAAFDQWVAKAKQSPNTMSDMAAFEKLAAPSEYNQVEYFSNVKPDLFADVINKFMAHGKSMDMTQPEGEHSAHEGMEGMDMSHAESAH
T1 sequence (P0ABJ3 whole entry partner): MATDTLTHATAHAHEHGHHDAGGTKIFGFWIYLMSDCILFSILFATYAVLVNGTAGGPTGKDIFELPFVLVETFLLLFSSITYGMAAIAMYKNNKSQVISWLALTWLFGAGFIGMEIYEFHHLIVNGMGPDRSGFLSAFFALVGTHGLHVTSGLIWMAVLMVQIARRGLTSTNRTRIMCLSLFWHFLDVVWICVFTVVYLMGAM
T1 sequence (P0ABJ6 whole entry partner): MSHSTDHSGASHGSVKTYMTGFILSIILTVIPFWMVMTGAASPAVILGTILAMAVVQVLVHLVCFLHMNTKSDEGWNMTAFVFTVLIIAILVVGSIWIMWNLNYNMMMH
Description: (§1) To isolate membranes from E. coli respiratory mutants expressing only one terminal quinol oxidase (cytochrome bd-I or cytochrome bd-II or cytochrome bo3), cell cultures were grown in LB medium until an OD600 of about 2 was reached. The cells were then pelleted by centrifugation at 10,000 rpm for 10 min and washed twice in 20 mM TRIS pH 8.3 containing 0.5 mM EDTA and 5 mM MgSO4. The cells were resuspended in the same buffer containing 1 mg/mL lysozyme and incubated for two hours on ice. A spatula tip of DNAse and RNase was then added, and the cells were lysed by sonication. Cell debris was removed by centrifugation at 15,000 rpm for 10 min. Membrane fractions were collected and stored at −80 °C. The protein content was determined using the Bradford method, using the Bradford reagent (Sigma) with bovine serum albumin as standard.
(§2) Oxygraphic measurements were performed at 25 °C in 50 mM K/phosphate pH 7.0, using a high-resolution respirometer (Oxygraph-2k, Oroboros Instruments GmbH, Innsbruck, Austria) equipped with two 1.5-mL chambers. The O2 consumption of E. coli cells was followed with endogenous reductants. In the case of isolated membranes, O2 consumption was measured in the presence of 2.5 mM dithiothreitol (DTT) and 2.5 μM 2,3-dimethoxy-5-methyl-6-(3-methyl-2-butenyl)-1,4-benzoquinone (Q1), an artificial reducing couple specific for quinol oxidases. […]

[2] = target: T2, cytochrome bd-II (bd-II-only E. coli cells) (Escherichia coli, UniProt P26459); test: O2 consumption (aerobic respiration) of bd-II-only E. coli cell suspensions; assay type: cell-based; settings: for IC50: read-out: apparent IC50
T2 construct: the oxidases were in vivo conditions, i.e., integrated into native bacterial membranes; endogenous in cells; host or cells: E. coli TBE026 (MG1655 ΔcydB nuoB cyoB::kan); whole cells (A2) or membranes isolated from them (A6)
T2 sequence (P26459 whole entry): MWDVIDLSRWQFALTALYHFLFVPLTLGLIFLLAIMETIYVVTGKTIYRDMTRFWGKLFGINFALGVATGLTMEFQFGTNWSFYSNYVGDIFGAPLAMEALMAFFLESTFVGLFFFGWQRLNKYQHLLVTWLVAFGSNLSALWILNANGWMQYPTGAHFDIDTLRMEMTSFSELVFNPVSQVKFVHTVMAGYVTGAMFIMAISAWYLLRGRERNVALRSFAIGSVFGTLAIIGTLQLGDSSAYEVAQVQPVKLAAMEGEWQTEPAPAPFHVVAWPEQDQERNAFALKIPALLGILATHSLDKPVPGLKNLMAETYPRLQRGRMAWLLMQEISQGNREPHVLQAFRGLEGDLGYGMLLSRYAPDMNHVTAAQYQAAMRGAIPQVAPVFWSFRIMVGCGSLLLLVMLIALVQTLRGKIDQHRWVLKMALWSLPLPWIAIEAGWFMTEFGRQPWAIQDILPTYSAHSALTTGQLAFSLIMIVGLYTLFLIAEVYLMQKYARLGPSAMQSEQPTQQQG
T2 sequence (P26458 whole entry partner): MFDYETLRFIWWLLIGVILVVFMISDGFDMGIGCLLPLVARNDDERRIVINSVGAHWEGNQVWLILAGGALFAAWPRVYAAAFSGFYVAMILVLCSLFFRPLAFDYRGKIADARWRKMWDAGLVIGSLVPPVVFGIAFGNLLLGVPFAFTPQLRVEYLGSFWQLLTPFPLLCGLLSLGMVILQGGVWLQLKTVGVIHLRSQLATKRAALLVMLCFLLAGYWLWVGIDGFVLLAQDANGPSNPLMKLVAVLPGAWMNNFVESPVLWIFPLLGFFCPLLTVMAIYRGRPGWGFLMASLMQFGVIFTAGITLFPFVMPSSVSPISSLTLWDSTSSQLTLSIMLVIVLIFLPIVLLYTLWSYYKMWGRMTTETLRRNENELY
T2 sequence (P24244 whole entry partner): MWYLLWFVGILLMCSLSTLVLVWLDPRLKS
Description: (§3) The CO and N2 gases were purchased from Linde (Danbury, CT, USA) and Air Liquide (Air Liquide Italia Spa, Milano, Italy), respectively. Other chemicals were purchased from Merck KGaA (Darmstadt, Germany). A stock solution of CO or N2 was prepared by equilibrating degassed water with the pure gas at 1 atm and room temperature, yielding 1 mM CO and 0.7 mM N2 in solution. E. coli respiratory mutant strains TBE025 (MG1655 ΔcydB nuoB appB::kan), TBE026 (MG1655 ΔcydB nuoB cyoB::kan), and TBE037 (MG1655 ΔappB nuoB cyoB::kan), which respectively express cytochrome bo3, cytochrome bd-II, or cytochrome bd-I as the sole terminal oxidase, were used. E. coli cultures were grown in Luria–Bertani (LB) medium supplemented with 30 μg/mL kanamycin, at 37 °C and 200 rpm. In the case of growth studies, after inoculation at an OD600 of 0.15 ± 0.03, the cells were grown in 50 mL rubber-stoppered flasks in 16 mL of air-equilibrated LB at 37 °C for 60 min; when OD600 reached 0.4 ± 0.08, they were bubbled for 30 s with either CO (pure gas at 1 atm and room temperature) or N2 (pure gas at 1 atm and room temperature) as a control to yield a final concentration of both gases of ~20%. The gas percentage was assessed by taking into account the different O2 concentrations, present in equal volumes of LB equilibrated with air or flushed with CO/N2 for 30 s, and calculated according to the following equation: Gas % = ([O2] air equilibrated − [O2] gas flushed)/[O2] air equilibrated × 100. [O2] air equilibrated and [O2] gas flushed are the O2 concentration values measured in the degassed chamber of a high-resolution respirometer (Oxygraph-2k, Oroboros Instruments GmbH, Innsbruck, Austria) of non-fluxed and fluxed E. coli cultures with CO or N2, respectively. The growth of the E. coli cultures was then monitored via a standard method using optical density measurements in an Eppendorf BioSpectrometer basic at 600 nm every 30 min. When the OD600 was above 1, cultures were diluted before reading.
(§4) Oxygraphic measurements were performed at 25 °C in 50 mM K/phosphate pH 7.0, using a high-resolution respirometer (Oxygraph-2k, Oroboros Instruments GmbH, Innsbruck, Austria) equipped with two 1.5-mL chambers. The O2 consumption of E. coli cells was followed with endogenous reductants. In the case of isolated membranes, O2 consumption was measured in the presence of 2.5 mM dithiothreitol (DTT) and 2.5 μM 2,3-dimethoxy-5-methyl-6-(3-methyl-2-butenyl)-1,4-benzoquinone (Q1), an artificial reducing couple specific for quinol oxidases. The catalytic O2-consuming activity was obtained by subtracting the non-enzymatic O2 consumption (Q1/DTT autoxidation in the absence of the membranes) from the O2 consumption rate measured after the addition of membranes.
(§5) UV–visible absorption spectra were recorded to estimate the amount of each terminal oxidase present in cell suspensions. For this purpose, an Agilent Cary 60 UV-Vis or a Varian Cary 300 Bio UV-Visible spectrophotometer was used.
(§6) Data analysis was carried out using software packages Origin v7.0 (OriginLab Corporation, Northampton, MA, USA) and GIM (Scientific Graphic Interactive Management System developed by A.L. Drachev in Lomonosov Moscow State University). The percentage inhibition of O2 consumption of cell suspensions (i%) was calculated using the equation i% = ((V0 − V0,i)/V0)·100, where V0 and V0,i are the initial rates in the absence and in the presence of the inhibitor (CO), respectively. The apparent IC50 values of cytochromes bd-II and bo3 for CO were estimated by plotting i% as a function of CO concentration added ([CO]0). The data were fitted to the standard hyperbolic equation i% = imax%·[CO]0/(IC50 + [CO]0) using a built-in approximation function (‘Hyperbola function’) in ‘Advanced Fitting tool’ in the Origin program. The imax% parameter is a theoretical maximum percent inhibition. […]

[3] = tested on: cytochrome bd-I heme d2+; settings: fully reduced form of the CO-bound enzyme; cited from earlier work
[4] = tested on: E. coli mutant strain expressing cytochrome bd-I as the sole terminal oxidase; test: Cell growth (OD600) of bd-I-only strain in presence of CO; assay type: cell-based, Escherichia coli; settings: ~20% CO added at 60 min after start of growth in air, vs ~20% N2 control
Description: as §3, with “E. coli cultures were grown in Luria–Bertani (LB) medium supplemented with 30 μg/mL kanamycin, at 37 °C and 200 rpm. In the case of growth studies, after inoculation at an OD600 of 0.15 ± 0.03, the cells were grown in 50 mL rubber-stoppered flasks in 16 mL of air-equilibrated LB at 37 °C for 60 min; when OD600 reached 0.4 ± 0.08, they were bubbled for 30 s with either CO (pure gas at 1 atm and room temperature) or N2 (pure gas at 1 atm and room temperature) as a control to yield a final concentration of both gases of ~20%.” left out, “When the OD600 was above 1, cultures were diluted before reading.” left out

[5] = target: T3, cytochrome bo3 (bo3-only E. coli cells) (Escherichia coli, UniProt P0ABI8); test: O2 consumption (aerobic respiration) of bo3-only E. coli cell suspensions; assay type: cell-based; settings: for IC50: read-out: apparent IC50
T3 construct: the oxidases were in vivo conditions, i.e., integrated into native bacterial membranes; endogenous in cells; host or cells: E. coli TBE025 (MG1655 ΔcydB nuoB appB::kan); whole cells (A3) or membranes isolated from them (A7)
T3 sequence (P0ABI8 whole entry): as the sequence (P0ABI8 whole entry) above
T3 sequence (P0ABJ1 25-315 partner): as the sequence (P0ABJ1 25-315 partner) above
T3 sequence (P0ABJ3 whole entry partner): as the sequence (P0ABJ3 whole entry partner) above
T3 sequence (P0ABJ6 whole entry partner): as the sequence (P0ABJ6 whole entry partner) above
Description: as §3, §4, §5, §6

[6] = target: T4, cytochrome bd-I (bd-I-only E. coli cells) (Escherichia coli, UniProt P0ABJ9); test: O2 consumption (aerobic respiration) of bd-I-only E. coli cell suspensions; assay type: cell-based
T4 construct: the oxidases were in vivo conditions, i.e., integrated into native bacterial membranes; endogenous in cells; host or cells: E. coli TBE037 (MG1655 ΔappB nuoB cyoB::kan); whole cells (A1) or membranes isolated from them (A5)
T4 sequence (P0ABJ9 whole entry): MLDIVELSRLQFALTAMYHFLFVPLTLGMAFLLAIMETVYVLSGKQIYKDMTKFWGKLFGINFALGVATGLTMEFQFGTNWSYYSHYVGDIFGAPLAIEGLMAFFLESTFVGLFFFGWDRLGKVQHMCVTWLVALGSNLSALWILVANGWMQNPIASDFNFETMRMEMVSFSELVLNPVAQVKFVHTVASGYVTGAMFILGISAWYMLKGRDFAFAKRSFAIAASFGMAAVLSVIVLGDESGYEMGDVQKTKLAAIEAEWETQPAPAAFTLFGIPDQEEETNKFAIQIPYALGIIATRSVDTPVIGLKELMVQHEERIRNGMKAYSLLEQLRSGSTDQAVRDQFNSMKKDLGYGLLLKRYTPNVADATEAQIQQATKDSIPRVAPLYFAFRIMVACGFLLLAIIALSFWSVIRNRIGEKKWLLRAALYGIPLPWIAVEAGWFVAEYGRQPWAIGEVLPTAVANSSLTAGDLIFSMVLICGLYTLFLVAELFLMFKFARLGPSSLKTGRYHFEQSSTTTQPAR
T4 sequence (P0ABK2 whole entry partner): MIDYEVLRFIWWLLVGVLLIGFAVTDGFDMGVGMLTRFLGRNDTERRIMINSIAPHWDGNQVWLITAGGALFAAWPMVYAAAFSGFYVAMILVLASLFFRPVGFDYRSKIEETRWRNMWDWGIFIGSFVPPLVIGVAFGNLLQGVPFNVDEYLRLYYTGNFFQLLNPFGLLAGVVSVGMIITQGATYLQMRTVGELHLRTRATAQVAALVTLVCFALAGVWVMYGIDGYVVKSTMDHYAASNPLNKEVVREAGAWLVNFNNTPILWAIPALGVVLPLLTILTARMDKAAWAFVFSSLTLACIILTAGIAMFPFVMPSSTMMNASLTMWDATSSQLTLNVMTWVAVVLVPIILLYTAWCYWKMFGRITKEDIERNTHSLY
T4 sequence (P56100 whole entry partner): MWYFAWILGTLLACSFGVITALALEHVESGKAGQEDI
T4 sequence (A5A618 whole entry partner): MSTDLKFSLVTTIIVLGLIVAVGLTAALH
Description: as §3
as §4, with “The O2 consumption of E. coli cells was followed with endogenous reductants.” left out
UV–visible absorption spectra were recorded to estimate the amount of each terminal oxidase present in cell suspensions. […]

[7] = tested on: E. coli mutant strain expressing cytochrome bo3 as the sole terminal oxidase; test: Cell growth (OD600) of bo3-only strain in presence of CO; assay type: cell-based, Escherichia coli; settings: ~20% CO added at 60 min after start of growth in air, vs ~20% N2 control
Description: as §3, with “E. coli cultures were grown in Luria–Bertani (LB) medium supplemented with 30 μg/mL kanamycin, at 37 °C and 200 rpm. In the case of growth studies, after inoculation at an OD600 of 0.15 ± 0.03, the cells were grown in 50 mL rubber-stoppered flasks in 16 mL of air-equilibrated LB at 37 °C for 60 min; when OD600 reached 0.4 ± 0.08, they were bubbled for 30 s with either CO (pure gas at 1 atm and room temperature) or N2 (pure gas at 1 atm and room temperature) as a control to yield a final concentration of both gases of ~20%.” left out, “When the OD600 was above 1, cultures were diluted before reading.” left out

[8] = tested on: E. coli wild-type strain MG1655 cells; test: O2 consumption of wild-type E. coli cell suspensions at high and low OD; assay type: cell-based, Escherichia coli
[9] = target: T2, cytochrome bd-II (bd-II-only E. coli cells); set-up: method as in PMID 37515940; settings: [O2] = 150 μM; cited from earlier work
[10] = target: T5, cytochrome bd-I (bd-I-only E. coli membranes) (Escherichia coli, UniProt P0ABJ9); test: O2 reductase activity of isolated bd-I-containing membranes; assay type: biochemical
T5 construct: the oxidases were in vivo conditions, i.e., integrated into native bacterial membranes; endogenous in cells; host or cells: E. coli TBE037 (MG1655 ΔappB nuoB cyoB::kan); whole cells (A1) or membranes isolated from them (A5)
T5 sequence (P0ABJ9 whole entry): as the sequence (P0ABJ9 whole entry) above
T5 sequence (P0ABK2 whole entry partner): as the sequence (P0ABK2 whole entry partner) above
T5 sequence (P56100 whole entry partner): as the sequence (P56100 whole entry partner) above
Description: as §1, §2

[11] = tested on: E. coli mutant strain expressing cytochrome bd-II as the sole terminal oxidase; test: Cell growth (OD600) of bd-II-only strain in presence of CO; assay type: cell-based, Escherichia coli; settings: ~20% CO added at 60 min after start of growth in air, vs ~20% N2 control
Description: as §3, with “E. coli cultures were grown in Luria–Bertani (LB) medium supplemented with 30 μg/mL kanamycin, at 37 °C and 200 rpm. In the case of growth studies, after inoculation at an OD600 of 0.15 ± 0.03, the cells were grown in 50 mL rubber-stoppered flasks in 16 mL of air-equilibrated LB at 37 °C for 60 min; when OD600 reached 0.4 ± 0.08, they were bubbled for 30 s with either CO (pure gas at 1 atm and room temperature) or N2 (pure gas at 1 atm and room temperature) as a control to yield a final concentration of both gases of ~20%.” left out, “When the OD600 was above 1, cultures were diluted before reading.” left out

[12] = tested on: terminal oxidase operons cyoABCDE, cydABX, appCBX; set-up: method as in PMID 26907100; settings: wild-type E. coli exposed to CO gas, cited from earlier work
[13] = target: T6, cytochrome bd-II (bd-II-only E. coli membranes) (Escherichia coli, UniProt P26459); test: O2 reductase activity of isolated bd-II-containing membranes; assay type: biochemical
T6 construct: the oxidases were in vivo conditions, i.e., integrated into native bacterial membranes; endogenous in cells; host or cells: E. coli TBE026 (MG1655 ΔcydB nuoB cyoB::kan); whole cells (A2) or membranes isolated from them (A6)
T6 sequence (P26459 whole entry): as the sequence (P26459 whole entry) above
T6 sequence (P26458 whole entry partner): as the sequence (P26458 whole entry partner) above
T6 sequence (P24244 whole entry partner): as the sequence (P24244 whole entry partner) above
Description: as §1, §2

[14] = target: T3, cytochrome bo3 (bo3-only E. coli cells); set-up: method as in PMID 38188931; settings: [O2] = 150 μM; cited from earlier work
[15] = tested on: cytochrome bo3; settings: read-out: apparent Km(O2); cited from earlier work
[16] = tested on: cytochrome bd-II; settings: read-out: apparent Km(O2); cited from earlier work
[17] = 196.3 μM CO added at [O2] = 50 μM
[18] = 196.3 μM CO added at [O2] = 100 μM
[19] = 196.3 μM CO added at [O2] = 200 μM

[C-]#[O+] [CO, Carbon monoxide]
CO inhibition of O2 reductase activity of membranes [1]: effectively inhibits
inhibition of O2 consumption ([2]; 96.3 μM CO added at [O2] = 100 μM, bd-II-only cells): 43.3 ± 7.6%
maximum inhibition percentage of respiration [2, 17]: 59.3 ± 11.5%
maximum inhibition percentage of respiration [2, 18]: 50.0 ± 3.6%
maximum inhibition percentage of respiration [2, 19]: 47.0 ± 6.0%
IC50 ([2]; CO added at [O2] = 50 μM): 88.6 ± 9.3 µM
IC50 ([2]; CO added at [O2] = 100 μM): 170 ± 15 µM
IC50 ([2]; CO added at [O2] = 200 μM): 230 ± 12 µM
Ki ([2]; estimated from IC50 values at different [O2], assuming competitive inhibition, Km(O2) 2 µM): 2.5 ± 0.2 µM
koff, dissociation of CO from the oxidase [3]: 6.0 ± 0.2 s⁻¹
effect on cell growth [4]: a minimal effect on cell growth was observed
inhibition of O2 consumption ([5]; 96.3 μM CO added at [O2] = 100 μM, bo3-only cells): 44.3 ± 1.5%
maximum inhibition percentage of respiration [5, 17]: 85.6 ± 3.7%
maximum inhibition percentage of respiration [5, 18]: 65.3 ± 17.2%
maximum inhibition percentage of respiration [5, 19]: 39.7 ± 11.5%
IC50 ([5]; CO added at [O2] = 50 μM): 66.5 ± 10 µM
IC50 ([5]; CO added at [O2] = 100 μM): 131 ± 14 µM
IC50 ([5]; CO added at [O2] = 200 μM): 330 ± 19.6 µM
Ki ([5]; estimated from IC50 values at different [O2], assuming competitive inhibition, Km(O2) 6 µM): 8.4 ± 0.7 µM
inhibition of O2 consumption ([6]; 96.3 μM CO added at [O2] = 100 μM, bd-I-only cells): 11.6 ± 1.1%
maximum inhibition percentage of respiration [6, 17]: 39.6 ± 4.5%
maximum inhibition percentage of respiration [6, 18]: 18.0 ± 7.8%
maximum inhibition percentage of respiration [6, 19]: 9.7 ± 4.9%
effect on cell growth [7]: severely impaired
sensitivity of O2 consumption to CO ([8]; wild-type cells harvested at high OD600 (prevalent expression of a bd-type oxidase)): low
sensitivity of O2 consumption to CO ([8]; wild-type cells harvested at low OD600 (prevalent expression of cytochrome bo3)): high
IC50 [9]: 187 ± 11.1 µM
CO inhibition of O2 reductase activity of membranes [10]: relatively resistant to inhibition by CO
effect on cell growth [11]: severely impaired
decrease in the expression of the cyoABCDE operon ([12]; aerobic conditions): 5- to 10 fold
increase in the expression of the cydABX operon ([12]; aerobic conditions): 4 fold
changes in the expression of the appCBX operon [12]: slight
CO inhibition of O2 reductase activity of membranes [13]: effectively inhibits
IC50 [14]: 183 ± 13.5 µM

O=O [O2]
Km [15]: 6 µM
Km [16]: 2 µM
